Experimental data as given in US20230210846A1, “TREATMENT FOR AMYLOIDOSIS” (Zeno Management,Inc., priority 2020, published 2023).

What was measured:
[1] = test system: KMS-12-BM cells; test: Tumor growth study in KMS-12-BM mouse model; format: in vivo; settings: for tumor growth inhibition (TGI): KMS-12-BM model
Procedure: Tumor volumes were evaluated twice per week to calculate tumor volume over time, and mice were weighed twice per week as a surrogate for signs of toxicity. […] Td and Cd are the mean tumor volumes of the treated and control animals, and T0 and C0 are the mean tumor volumes of the treated and control animals at the start of the experiment.
(§1) Tumor volumes were evaluated twice per week to calculate tumor volume over time, and mice were weighed twice per week as a surrogate for signs of toxicity. Tumor growth inhibition (TGI) was calculated using the following equation TGI=(1−(Td−T0)/(Cd−C0))×100%. Td and Cd are the mean tumor volumes of the treated and control animals, and T0 and C0 are the mean tumor volumes of the treated and control animals at the start of the experiment.
as §1

[2] = test system: OPM-2 cells; test: Tumor growth study in OPM-2 mouse model; format: in vivo; settings: OPM-2 subcutaneous model, 100 mg/kg oral gavage once a day, after 10 days
Procedure: It is understood that compound activity in MM models is predictive of activity in amyloidosis (e.g. AL amyloidosis) models and/or patients.
Mice were inoculated with OPM-2 cells subcutaneously on the right flank with the single cell suspension of 95% viable tumor cells (1×10^7) in 200 μL RPMI-1640 Matrigel mixture (1:1 ratio) without serum for the tumor development. The treatment was started when the mean tumor size reached approximately 200 mm^3, with individual tumor size ranging from 180-220 mm^3. Animals were randomly distributed into treatment groups of 10 animals each and dosed with either vehicle (i.e. “Vehicle A”) or a compound of Formula (A) having the structure
(“Compound (A)”) at 100 mg/kg administered by oral gavage once a day. Tumor volumes were evaluated twice per week to calculate tumor volume over time, and mice were weighed twice per week as a surrogate for signs of toxicity. Tumor growth inhibition (TGI) efficiency was calculated using the following equation TGI=(1−(Td−T0)/(Cd−C0))×100%. Td and Cd are the mean tumor volumes of the treated and control animals, and T0 and C0 are the mean tumor volumes of the treated and control animals at the start of the experiment.

C[C@@H]1C[C@H]2[C@@H]3CCC4=CC(=O)C=C[C@]4(C)[C@@]3(F)[C@@H](O)C[C@]2(C)[C@@]1(O)C(=O)CO [dexamethasone, reference compound]
tumor growth inhibition (TGI) ([1]; single agent 1 mg/kg IP 5 days on 2 days off, day 14): 22.5%

CC(C)C[C@H](NC(=O)[C@H](Cc1ccccc1)NC(=O)c1cnccn1)B(O)O [bortezomib, reference compound]
tumor growth inhibition (TGI) ([1]; single agent 0.5 mg/kg IP BIW, day 14): 46.5%

CC1(C)CCC(CN2CCN(c3ccc(C(=O)NS(=O)(=O)c4ccc(NC[C@H]5CC[C@](C)(O)CC5)c([N+](=O)[O-])c4)c(Oc4cnc5[nH]ccc5c4)c3)CC2)=C(C23CC(C(F)F)(C2)C3)C1 [Compound (A)]
TGI efficacy (tumor growth inhibition) [2]: 46%
tumor growth inhibition (TGI) ([1]; single agent 50 mg/kg p.o. qd x21, day 14): 48.7%
TGI efficacy (tumor growth inhibition) ([1]; KMS-12-BM subcutaneous model, single agent 100 mg/kg p.o. qd, day 14): 62.8%
